Reference: US8192962B2, “Processes for detecting toxic substances” (Daikin Industries, Ltd., priority 2001, dated 2012)

Tested on: Genes belonging to other category
Assay: DNA chip mRNA expression in yeast, genes belonging to other category (Table 9)
Format: cell-based, Saccharomyces cerevisiae S288C
Outline: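 First, S288C yeast grown in YPD at 25° C. are dosed in log phase with one toxicant (growth-inhibiting, not lethal) for 2 h. Next, total RNA is extracted and poly(A) mRNA isolated and reverse-transcribed with Cy3/Cy5-dUTP. Finally, whole-genome chip fluorescence is read relative to unexposed cells.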

For `CCCCCCCCCCCCOS(=O)(=O)[O-].[Na+]` [(18), sodium lauryl sulfate], the “The level of expressed mRNA in the presence of chemical substance/The level of expressed mRNA in the absence of chemical substance” value (yeast gene YAR010C) was 1.0, the “The level of expressed mRNA in the presence of chemical substance/The level of expressed mRNA in the absence of chemical substance” value (yeast gene YBL005W-A) was 1.0 and the “The level of expressed mRNA in the presence of chemical substance/The level of expressed mRNA in the absence of chemical substance” value (yeast gene YBL041W) was 2.0. The “The level of expressed mRNA in the presence of chemical substance/The level of expressed mRNA in the absence of chemical substance” value (yeast gene YBL043W) was 1.8, the “The level of expressed mRNA in the presence of chemical substance/The level of expressed mRNA in the absence of chemical substance” value (yeast gene YBL078C) was 2.8 and the “The level of expressed mRNA in the presence of chemical substance/The level of expressed mRNA in the absence of chemical substance” value (yeast gene YBL101C) was 1.1. The “The level of expressed mRNA in the presence of chemical substance/The level of expressed mRNA in the absence of chemical substance” value (yeast gene YBL101W-A) was 1.2, the “The level of expressed mRNA in the presence of chemical substance/The level of expressed mRNA in the absence of chemical substance” value (yeast gene YBR009C) was 2.4 and the “The level of expressed mRNA in the presence of chemical substance/The level of expressed mRNA in the absence of chemical substance” value (yeast gene YBR076W) was 1.2. For the same compound, the “The level of expressed mRNA in the presence of chemical substance/The level of expressed mRNA in the absence of chemical substance” value (yeast gene YBR170C) was 1.4, the “The level of expressed mRNA in the presence of chemical substance/The level of expressed mRNA in the absence of chemical substance” value (yeast gene YBR173C) was 1.6 and the “The level of expressed mRNA in the presence of chemical substance/The level of expressed mRNA in the absence of chemical substance” value (yeast gene YBR177C) was 0.9. The “The level of expressed mRNA in the presence of chemical substance/The level of expressed mRNA in the absence of chemical substance” value (yeast gene YBR214W) was 1.2, the “The level of expressed mRNA in the presence of chemical substance/The level of expressed mRNA in the absence of chemical substance” value (yeast gene YBR239C) was 0.9 and the “The level of expressed mRNA in the presence of chemical substance/The level of expressed mRNA in the absence of chemical substance” value (yeast gene YBR286W) was 1.6. For the same compound, the “The level of expressed mRNA in the presence of chemical substance/The level of expressed mRNA in the absence of chemical substance” value (yeast gene YCL020W) was 1.3, the “The level of expressed mRNA in the presence of chemical substance/The level of expressed mRNA in the absence of chemical substance” value (yeast gene YCL027W) was 0.8 and the “The level of expressed mRNA in the presence of chemical substance/The level of expressed mRNA in the absence of chemical substance” value (yeast gene YCR004C) was 3.5. For the same compound, the “The level of expressed mRNA in the presence of chemical substance/The level of expressed mRNA in the absence of chemical substance” value (yeast gene YCR038C) was 1.1, the “The level of expressed mRNA in the presence of chemical substance/The level of expressed mRNA in the absence of chemical substance” value (yeast gene YCR067C) was 0.9 and the “The level of expressed mRNA in the presence of chemical substance/The level of expressed mRNA in the absence of chemical substance” value (yeast gene YCR071C) was 1.3. For the same compound, the “The level of expressed mRNA in the presence of chemical substance/The level of expressed mRNA in the absence of chemical substance” value (yeast gene YCR088W) was 0.9, the “The level of expressed mRNA in the presence of chemical substance/The level of expressed mRNA in the absence of chemical substance” value (yeast gene YCR106W) was 1.2 and the “The level of expressed mRNA in the presence of chemical substance/The level of expressed mRNA in the absence of chemical substance” value (yeast gene YDL008W) was 1.6. The “The level of expressed mRNA in the presence of chemical substance/The level of expressed mRNA in the absence of chemical substance” value (yeast gene YDL065C) was 1.2, the “The level of expressed mRNA in the presence of chemical substance/The level of expressed mRNA in the absence of chemical substance” value (yeast gene YDL192W) was 2.3 and the “The level of expressed mRNA in the presence of chemical substance/The level of expressed mRNA in the absence of chemical substance” value (yeast gene YDL220C) was 0.9. For the same compound, the “The level of expressed mRNA in the presence of chemical substance/The level of expressed mRNA in the absence of chemical substance” value (yeast gene YDL230W) was 1.2, the “The level of expressed mRNA in the presence of chemical substance/The level of expressed mRNA in the absence of chemical substance” value (yeast gene YDL238C) was 1.3 and the “The level of expressed mRNA in the presence of chemical substance/The level of expressed mRNA in the absence of chemical substance” value (yeast gene YDR022C) was 1.2. For the same compound, the “The level of expressed mRNA in the presence of chemical substance/The level of expressed mRNA in the absence of chemical substance” value (yeast gene YDR041W) was 2.5, the “The level of expressed mRNA in the presence of chemical substance/The level of expressed mRNA in the absence of chemical substance” value (yeast gene YDR055W) was 1.9 and the “The level of expressed mRNA in the presence of chemical substance/The level of expressed mRNA in the absence of chemical substance” value (yeast gene YDR084C) was 1.3. For the same compound, the “The level of expressed mRNA in the presence of chemical substance/The level of expressed mRNA in the absence of chemical substance” value (yeast gene YDR085C) was 1.8, the “The level of expressed mRNA in the presence of chemical substance/The level of expressed mRNA in the absence of chemical substance” value (yeast gene YDR104C) was 1.0 and the “The level of expressed mRNA in the presence of chemical substance/The level of expressed mRNA in the absence of chemical substance” value (yeast gene YDR115W) was 1.4. For the same compound, the “The level of expressed mRNA in the presence of chemical substance/The level of expressed mRNA in the absence of chemical substance” value (yeast gene YDR125C) was 1.2, the “The level of expressed mRNA in the presence of chemical substance/The level of expressed mRNA in the absence of chemical substance” value (yeast gene YDR168W) was 1.4 and the “The level of expressed mRNA in the presence of chemical substance/The level of expressed mRNA in the absence of chemical substance” value (yeast gene YDR169C) was 1.1. The “The level of expressed mRNA in the presence of chemical substance/The level of expressed mRNA in the absence of chemical substance” value (yeast gene YDR181C) was 1.2, the “The level of expressed mRNA in the presence of chemical substance/The level of expressed mRNA in the absence of chemical substance” value (yeast gene YDR188W) was 0.8 and the “The level of expressed mRNA in the presence of chemical substance/The level of expressed mRNA in the absence of chemical substance” value (yeast gene YDR259C) was 0.8. The “The level of expressed mRNA in the presence of chemical substance/The level of expressed mRNA in the absence of chemical substance” value (yeast gene YDR264C) was 1.4, the “The level of expressed mRNA in the presence of chemical substance/The level of expressed mRNA in the absence of chemical substance” value (yeast gene YDR315C) was 1.2 and the “The level of expressed mRNA in the presence of chemical substance/The level of expressed mRNA in the absence of chemical substance” value (yeast gene YDR358W) was 1.9. For the same compound, the “The level of expressed mRNA in the presence of chemical substance/The level of expressed mRNA in the absence of chemical substance” value (yeast gene YDR373W) was 1.6 and the “The level of expressed mRNA in the presence of chemical substance/The level of expressed mRNA in the absence of chemical substance” value (yeast gene YDR388W) was 1.3.
